From the NIST ThermoML archive (doi:10.1021/je700266n)

Test: xn = mol fraction of the nth substance listed
Conditions: 101 kPa, Liquid

CCCCn1cc[n+](C)c1.F[B-](F)(F)F [1-butyl-3-methylimidazolium tetrafluoroborate] + CC#N
mass density [kg/m3]
Conditions | x1 = 0.1 | x1 = 0.1997 | x1 = 0.3 | x1 = 0.4005 | x1 = 0.4995 | x1 = 0.6015 | x1 = 0.6998 | x1 = 0.799 | x1 = 0.9012 | x1 = 1
293.15 K | 913.54 | 993.5 | 1047.76 | 1086.95 | 1116.42 | 1138.87 | 1156.73 | 1171.64 | 1185.23 | 1195.71
298.15 K | 908.78 | 989.03 | 1043.55 | 1082.89 | 1112.51 | 1135.03 | 1152.98 | 1167.96 | 1181.58 | 1192.07
303.15 K | 903.94 | 984.51 | 1039.25 | 1078.74 | 1108.44 | 1131.08 | 1149.11 | 1164.16 | 1177.8 | 1188.37
308.15 K | 899.1 | 980.03 | 1034.99 | 1074.62 | 1104.46 | 1127.17 | 1145.29 | 1160.39 | 1174.09 | 1184.72
313.15 K | 894.51 | 975.82 | 1031.1 | 1070.84 | 1100.65 | 1123.64 | 1141.82 | 1157 | 1170.73 | 1181.43
323.15 K | 885.05 | 967.07 | 1022.86 | 1062.98 | 1093.19 | 1116.23 | 1134.55 | 1149.88 | 1163.8 | 1174.49
333.15 K | 874.91 | 957.71 | 1013.98 | 1054.45 | 1084.93 | 1108.14 | 1126.63 | 1142.09 | 1156.07 | 1166.89
343.15 K | 866.42 | 948.85 | 1005.39 | 1046.32 | 1077.27 | 1100.67 | 1119.31 | 1134.92 | 1149.06 | 1159.97

CC#N [acetonitrile] + CCCCn1cc[n+](C)c1.F[B-](F)(F)F
x2 = 0
Conditions | mass density [kg/m3]
293.15 K | 782.3
298.15 K | 776.93
303.15 K | 771.44
308.15 K | 765.97
313.15 K | 760.68
323.15 K | 749.73
333.15 K | 738.19
343.15 K | 726.94

CCCCn1cc[n+](C)c1.F[B-](F)(F)F [1-butyl-3-methylimidazolium tetrafluoroborate] + c1ccccc1
mass density [kg/m3]
Conditions | 293.15 K | 298.15 K | 303.15 K | 308.15 K | 313.15 K | 323.15 K | 333.15 K | 343.15 K
x1 = 0.4871 | 1105.2 | 1101.28 | 1097.21 | 1093.23 | 1089.58 | 1081.9 | 1073.73 | 1065.72
x1 = 0.5499 | 1120.99 | 1117.14 | 1113.2 | 1109.3 | 1105.72 | 1098.23 | 1090.17 | 1082.51
x1 = 0.5999 | 1132.31 | 1128.5 | 1124.57 | 1120.71 | 1117.22 | 1109.81 | 1101.75 | 1094.35
x1 = 0.7001 | 1151.84 | 1148.13 | 1144.26 | 1140.47 | 1137.04 | 1129.83 | 1121.95 | 1114.7
x1 = 0.8 | 1168.73 | 1165.02 | 1161.24 | 1157.48 | 1154.13 | 1147.03 | 1139.28 | 1132.17
x1 = 0.899 | 1182.8 | 1179.15 | 1175.38 | 1171.67 | 1168.35 | 1161.36 | 1153.64 | 1146.64
x1 = 0.9498 | 1189.44 | 1185.85 | 1182.12 | 1178.45 | 1175.16 | 1168.19 | 1160.54 | 1153.58
x1 = 1 | 1195.71 | 1192.07 | 1188.37 | 1184.72 | 1181.43 | 1174.49 | 1166.89 | 1159.97

CC#N [acetonitrile] + CCCCn1cc[n+](C)c1.F[P-](F)(F)(F)(F)F
x2 = 0
Conditions | mass density [kg/m3]
293.15 K | 782.3
298.15 K | 776.93
303.15 K | 771.44
308.15 K | 765.97
313.15 K | 760.68
323.15 K | 749.73
333.15 K | 738.19
343.15 K | 726.94

c1ccccc1 [benzene] + CCCCn1cc[n+](C)c1.F[P-](F)(F)(F)(F)F
x2 = 0
Conditions | mass density [kg/m3]
293.15 K | 878.23
298.15 K | 873.11
303.15 K | 867.59
308.15 K | 862.21
313.15 K | 856.82
323.15 K | 846.05
333.15 K | 835.76
343.15 K | 824.89

c1ccccc1 [benzene] + CCCCn1cc[n+](C)c1.F[B-](F)(F)F
x2 = 0
Conditions | mass density [kg/m3]
293.15 K | 878.23
298.15 K | 873.11
303.15 K | 867.59
308.15 K | 862.21
313.15 K | 856.82
323.15 K | 846.05
333.15 K | 835.76
343.15 K | 824.89

CCCCn1cc[n+](C)c1.F[P-](F)(F)(F)(F)F [1-butyl-3-methylimidazolium hexafluorophosphate] + CC#N
mass density [kg/m3]
Conditions | x1 = 0.1 | x1 = 0.1997 | x1 = 0.3001 | x1 = 0.4002 | x1 = 0.4995 | x1 = 0.5996 | x1 = 0.7001 | x1 = 0.8 | x1 = 0.8992 | x1 = 1
293.15 K | 974.06 | 1089.47 | 1167.16 | 1221.32 | 1261.57 | 1293.48 | 1318.51 | 1339.25 | 1356.81 | 1371.57
298.15 K | 969.05 | 1084.37 | 1162.48 | 1216.77 | 1257.1 | 1289.08 | 1314.15 | 1334.92 | 1352.54 | 1367.22
303.15 K | 963.9 | 1079.44 | 1157.73 | 1212.1 | 1252.55 | 1284.55 | 1309.69 | 1330.47 | 1348.19 | 1362.86
308.15 K | 958.79 | 1074.57 | 1153.01 | 1207.52 | 1248.07 | 1280.12 | 1305.51 | 1326.23 | 1343.83 | 1358.56
313.15 K | 953.96 | 1070.04 | 1148.67 | 1203.29 | 1243.97 | 1276.12 | 1301.33 | 1322.21 | 1339.74 | 1354.3
323.15 K | 943.95 | 1060.53 | 1139.57 | 1194.5 | 1235.37 | 1267.65 | 1292.68 | 1313.73 | 1331.33 | 1345.98
333.15 K | 933.35 | 1050.42 | 1129.8 | 1184.99 | 1226.09 | 1258.64 | 1283.91 | 1305.14 | 1323.02 | 1337.7
343.15 K | 923.24 | 1040.99 | 1120.72 | 1176.43 | 1217.82 | 1250.62 | 1276.41 | 1297.84 | 1315.94 | 1330.76

CCCO [propan-1-ol] + CCCCn1cc[n+](C)c1.F[B-](F)(F)F
x2 = 0
Conditions | mass density [kg/m3]
293.15 K | 804.97
298.15 K | 801.01
303.15 K | 796.89
308.15 K | 792.83
313.15 K | 789.07
323.15 K | 780.74
333.15 K | 771.75
343.15 K | 762.86
